Test [1] relates to non-HKD-containing bacterial (Streptomyces chromofuscus) PLD. Particulars: read-out: IC50 S. chromofuscus PLD; in vitro; cited from earlier work.
For another test, the system named is human PLD1b. Particulars: read-out: IC50 human PLD1b; in vitro; cited from earlier work.
Test [2] concerns MDA-231 human breast cancer cell line. The test is described as follows: Transwell matrigel invasion assay, MDA-231. Particulars: MDA-231, 20 µM, 48 h. Format: cell-based.
Test [3] has as its system 4T1 mouse metastatic breast cancer line. Nature of the test: Transwell matrigel invasion assay, 4T1. Particulars: 48 h. In kind it is cell-based.
For the next test, the system named is PMT cells. The test is described as follows: Transwell matrigel invasion assay, PMT. Format: cell-based, mouse. Particulars: 20 µM, 48 h.
The target in the next test is T1, rat PLD1.d311 (Rattus norvegicus, UniProt P70496).
T1 sequence (P70496 312-1036 isoform P70496-2): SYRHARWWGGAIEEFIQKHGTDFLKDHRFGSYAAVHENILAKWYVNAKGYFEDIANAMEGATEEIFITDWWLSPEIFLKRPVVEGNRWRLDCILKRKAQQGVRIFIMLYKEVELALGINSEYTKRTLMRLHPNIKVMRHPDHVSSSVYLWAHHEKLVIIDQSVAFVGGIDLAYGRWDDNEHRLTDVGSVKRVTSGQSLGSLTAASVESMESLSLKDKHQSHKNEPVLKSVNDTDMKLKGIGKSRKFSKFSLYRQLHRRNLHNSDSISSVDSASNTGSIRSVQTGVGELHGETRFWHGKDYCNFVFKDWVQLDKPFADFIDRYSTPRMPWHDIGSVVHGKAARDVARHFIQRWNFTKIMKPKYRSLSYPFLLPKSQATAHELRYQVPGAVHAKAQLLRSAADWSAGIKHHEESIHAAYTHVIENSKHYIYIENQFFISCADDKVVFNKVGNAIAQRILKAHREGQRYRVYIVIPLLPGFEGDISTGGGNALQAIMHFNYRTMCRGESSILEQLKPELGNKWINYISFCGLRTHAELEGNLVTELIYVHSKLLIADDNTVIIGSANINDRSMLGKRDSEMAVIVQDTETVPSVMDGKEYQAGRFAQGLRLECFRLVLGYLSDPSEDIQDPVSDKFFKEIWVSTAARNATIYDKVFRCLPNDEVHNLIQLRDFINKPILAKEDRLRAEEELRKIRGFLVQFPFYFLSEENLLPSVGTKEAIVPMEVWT
Particulars: no noticeable difference between the two.

Test [4] has as its target PLD2 (HEK293-gfpPLD2 cells) (Homo sapiens, UniProt O14939). The test is described as follows: Endogenous PLD activity assay. In kind it is cell-based.
The subject of another test is PLD. Particulars: read-out: IC50 (PLD, indirect inhibitor); cited from earlier work.

Chain of PLD2 (HEK293-gfpPLD2 cells) (O14939 whole entry): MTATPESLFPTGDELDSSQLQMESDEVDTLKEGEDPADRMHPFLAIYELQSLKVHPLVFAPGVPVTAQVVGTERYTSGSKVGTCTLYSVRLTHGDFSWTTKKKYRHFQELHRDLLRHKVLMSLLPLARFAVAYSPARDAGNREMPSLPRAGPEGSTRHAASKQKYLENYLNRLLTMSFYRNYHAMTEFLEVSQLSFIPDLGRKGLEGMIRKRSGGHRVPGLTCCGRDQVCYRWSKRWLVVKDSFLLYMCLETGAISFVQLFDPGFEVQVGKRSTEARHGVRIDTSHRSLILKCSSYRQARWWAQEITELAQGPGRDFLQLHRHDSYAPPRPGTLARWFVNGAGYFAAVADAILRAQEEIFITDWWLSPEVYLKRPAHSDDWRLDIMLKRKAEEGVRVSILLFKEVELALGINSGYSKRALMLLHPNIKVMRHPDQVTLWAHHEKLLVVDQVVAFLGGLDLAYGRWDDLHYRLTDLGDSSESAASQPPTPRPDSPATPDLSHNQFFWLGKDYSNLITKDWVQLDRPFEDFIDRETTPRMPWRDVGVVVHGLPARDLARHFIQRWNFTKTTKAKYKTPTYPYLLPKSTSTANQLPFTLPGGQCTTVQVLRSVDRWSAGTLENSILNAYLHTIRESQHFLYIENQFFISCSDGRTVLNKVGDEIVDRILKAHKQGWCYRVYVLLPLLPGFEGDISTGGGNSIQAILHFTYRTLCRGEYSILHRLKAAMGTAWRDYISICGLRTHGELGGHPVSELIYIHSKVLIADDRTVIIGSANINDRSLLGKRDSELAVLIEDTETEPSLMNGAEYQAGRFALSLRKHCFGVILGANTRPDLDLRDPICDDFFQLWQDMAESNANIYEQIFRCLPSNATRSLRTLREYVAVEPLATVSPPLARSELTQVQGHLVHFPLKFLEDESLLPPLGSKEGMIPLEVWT

For orientation: IC50 means the concentration that inhibits the measured activity by half. Take `CC(C)=CCC/C(C)=C/CC/C(C)=C/C1C(COP(=O)(O)OP(=O)(O)O)C1(C)CC/C=C(\C)CCC=C(C)C` (stereo in doubt) [presqualene diphosphate]: the IC50 was 0.1 µM in test [1] and above 1 µM in the test on human PLD1b.

Take `O=C(NCCN1CCC(n2c(=O)[nH]c3ccccc32)CC1)c1ccc2ccccc2c1` [Compound 56]: the “Invasive migration in transwell invasion assay” value (“Invasive migration” below) in test [2] is given as “significantly (P < 0.05) decrease”; in test [3] (4T1, 20 µM) it was “significantly (P < 0.05) decrease”; in the test with PMT cells it was “significantly (P < 0.05) decrease”.

Consider `O=C(NCCN1CCC(n2c(=O)[nH]c3ccccc32)CC1)[C@@H]1C[C@H]1c1ccccc1` [Compound 58], for which the “Invasive migration” value is listed as “significantly decreased cell migration” in test [2]; “significantly decreased cell migration” in test [3] (4T1, 200 nM); “significantly decreased cell migration” in test [3] (4T1, 20 µM); “significantly decreased cell migration” in the test with PMT cells.

`O=C(NCCN1CCC(n2c(=O)[nH]c3ccccc32)CC1)c1cc(Br)c(Br)o1` [Compound 64]: the “Inhibition of basal and myr-Arf-1-stimulated activity of purified PLD1.d311” value at rat PLD1.d311 is given as “directly inhibited”.

Consider `C[C@@H](CN1CCC(n2c(=O)[nH]c3cc(Cl)ccc32)CC1)NC(=O)c1ccc2ccccc2c1` [Compound 69], for which the “Invasive migration” value in test [2] is “significantly decreased cell migration”; in test [3] (4T1, 200 nM) it was “significantly decreased cell migration”; in test [3] (4T1, 20 µM), “significantly decreased cell migration”; in the test with PMT cells, “significantly decreased cell migration”.

In the case of `O=C(NCCN1CCC2(CC1)C(=O)NCN2c1ccccc1)c1ccc(C(F)(F)F)cc1` [Compound 70], the IC50 in test [4] is above 20 µM.

On to `O=C(NCCN1CCC2(CC1)C(=O)NCN2c1ccccc1)c1ccc2ccccc2c1` [Compound 72], for which the “Invasive migration” value is listed as “significantly decreased cell migration” in test [2]; “significantly decreased cell migration” in test [3] (4T1, 20 µM); “significantly decreased cell migration” in the test with PMT cells.

`O=C(c1ccc(Cl)cc1)N(CCN1CCC2(CC1)C(=O)NCN2c1ccccc1)C(=O)c1ccc(Cl)cc1` [Compound 82]: the “Invasive migration” value was “significantly decreased cell migration” in test [2]; “significantly decreased cell migration” in test [3] (4T1, 20 µM); “significantly decreased cell migration” in the test with PMT cells.

With `Oc1ccc(/C=C/c2cc(O)cc(O)c2)cc1` [resveratrol], the IC50 with PLD was above 60 µM.

The values are drawn from article PMC3798018 (Nature chemical biology, 2009).
